Experimental data: patent US11661413B2, “Pyrazole compounds or salts thereof, preparation method therefor, herbicidal composition and use thereof” (priority 2015, dated 2023)

Tests used:
Flixweed = assay: weed control effect in post emergence stage, greenhouse pot spray; assay type: in vivo; settings: 16 g/mu, sprayed at 2-3 leaf stage, after 3 weeks
Experimental: (§1) The activity level standard of harmful plant damage (i.e. growth inhibition rate) is as follows: The above described growth control rate is fresh weight control rate. Monocotyledonous and dicotyledonous weed seeds and main crop seeds (i.e. wheat, corn, rice, soybean, cotton, oilseed, millet and Sorghum) were put into a plastic pot loaded with soil. Then covered with 0.5-2 cm soil, the seeds were allowed to grow in good greenhouse environment. The test plants were treated at 2-3 leaf stage 2-3 weeks after sowing. […] The solution was sprayed to the plants with a sprayer. Then the plants were cultured for 3 weeks in the greenhouse.

Barnyard grass = assay: as above; assay type: in vivo; settings: sprayed at 2-3 leaf stage, after 3 weeks
Experimental: as §1

Row | SMILES | weed control effect (activity level), Flixweed (Flixweed) | weed control effect (activity level), Barnyard grass (Barnyard grass; 1 g/mu) | weed control effect (activity level), Barnyard grass (Barnyard grass; 2 g/mu) | weed control effect (activity level), Barnyard grass (Barnyard grass; 4 g/mu) | weed control effect (activity level), Barnyard grass (Barnyard grass; 8 g/mu) | weed control effect (activity level), Barnyard grass (Barnyard grass; 16 g/mu)
1 | Cc1cc(C)n(Cc2c(S(C)(=O)=O)ccc(C(=O)c3cnn(C)c3O)c2Cl)n1 [Compound 9] | 10 | 2 (above 20% growth inhibition rate) | 2 (above 20% growth inhibition rate) | 3 (above 30% growth inhibition rate) | 5 (above 50% growth inhibition rate) | 5 (above 50% growth inhibition rate)
2 | Cc1nn(C(C)C)c(O)c1C(=O)c1ccc(S(C)(=O)=O)c(Cn2cc(Cl)cn2)c1Cl [Compound 30] | 10 | 2 (above 20% growth inhibition rate) | 3 (above 30% growth inhibition rate) | 5 (above 50% growth inhibition rate) | 7 (above 70% growth inhibition rate) | 7 (above 70% growth inhibition rate)
3 | Cc1nn(C)c(O)c1C(=O)c1ccc(S(C)(=O)=O)c(Cn2nc(C(F)(F)F)cc2C(F)(F)F)c1Cl [Compound 41] | 10 | 4 (above 30% growth inhibition rate) | 5 (above 50% growth inhibition rate) | 6 (above 60% growth inhibition rate) | 7 (above 70% growth inhibition rate) | 7 (above 70% growth inhibition rate)
4 | CCn1nc(C)c(C(=O)c2ccc(S(C)(=O)=O)c(Cn3cc(C)cn3)c2Cl)c1O [Compound 16] | 10 | 2 (above 20% growth inhibition rate) | 3 (above 30% growth inhibition rate) | 4 (above 30% growth inhibition rate) | 4 (above 30% growth inhibition rate) | 6 (above 60% growth inhibition rate)
5 | CCc1nn(CC)c(O)c1C(=O)c1ccc(S(C)(=O)=O)c(Cn2nc(C)cc2C)c1Cl [Compound 26] | 10 | 2 (above 20% growth inhibition rate) | 2 (above 20% growth inhibition rate) | 4 (above 30% growth inhibition rate) | 3 (above 30% growth inhibition rate) | 5 (above 50% growth inhibition rate)
6 | CCOc1c(C(=O)c2ccc(S(C)(=O)=O)c(Cn3nc(C)cc3C)c2Cl)c(C)nn1C [Compound 37] | 2 (above 20% growth inhibition rate) | 0 | 1 (above 1-10% growth inhibition rate) | 1 (above 1-10% growth inhibition rate) | 2 (above 20% growth inhibition rate) | 2 (above 20% growth inhibition rate)
7 | Cn1nc(C2CC2)c(C(=O)c2ccc(S(C)(=O)=O)c(Cn3cc(Cl)cn3)c2Cl)c1O [Compound 11] | 10 | 2 (above 20% growth inhibition rate) | 4 (above 30% growth inhibition rate) | 4 (above 30% growth inhibition rate) | 6 (above 60% growth inhibition rate) | 7 (above 70% growth inhibition rate)
8 | CCn1ncc(C(=O)c2ccc(S(C)(=O)=O)c(Cn3cc(C)cn3)c2Cl)c1O [Compound 19] | 10 | 2 (above 20% growth inhibition rate) | 3 (above 30% growth inhibition rate) | 3 (above 30% growth inhibition rate) | 4 (above 30% growth inhibition rate) | 4 (above 30% growth inhibition rate)
9 | CCn1ncc(C(=O)c2ccc(S(C)(=O)=O)c(Cn3nc(C)cc3C)c2Cl)c1O [Compound 20] | 10 | 3 (above 30% growth inhibition rate) | 4 (above 30% growth inhibition rate) | 6 (above 60% growth inhibition rate) | 6 (above 60% growth inhibition rate) | 8 (above 80% growth inhibition rate)
10 | Cn1ncc(C(=O)c2ccc(S(C)(=O)=O)c(Cn3cc(Cl)cn3)c2Cl)c1O [Compound 10] | 10 | 2 (above 20% growth inhibition rate) | 4 (above 30% growth inhibition rate) | 4 (above 30% growth inhibition rate) | 7 (above 70% growth inhibition rate) | 8 (above 80% growth inhibition rate)
11 | CCc1nn(C(C)C)c(O)c1C(=O)c1ccc(S(C)(=O)=O)c(Cn2nc(C)cc2C)c1Cl [Compound 29] | 10 | 2 (above 20% growth inhibition rate) | 3 (above 30% growth inhibition rate) | 5 (above 50% growth inhibition rate) | 7 (above 70% growth inhibition rate) | 8 (above 80% growth inhibition rate)
12 | CCCCCOc1c(C(=O)c2ccc(S(C)(=O)=O)c(Cn3nc(C)cc3C)c2Cl)c(C)nn1C [Compound 38] | 2 (above 20% growth inhibition rate) | 0 | 1 (above 1-10% growth inhibition rate) | 1 (above 1-10% growth inhibition rate) | 2 (above 20% growth inhibition rate) | 2 (above 20% growth inhibition rate)
13 | CCn1nc(C2CC2)c(C(=O)c2ccc(S(C)(=O)=O)c(Cn3cc(C)cn3)c2Cl)c1O [Compound 22] | 10 | 2 (above 20% growth inhibition rate) | 4 (above 30% growth inhibition rate) | 6 (above 60% growth inhibition rate) | 6 (above 60% growth inhibition rate) | 10
14 | CCn1nc(C)c(C(=O)c2ccc(S(C)(=O)=O)c(Cn3nc(C)cc3C)c2Cl)c1O [Compound 17] | 10 | 2 (above 20% growth inhibition rate) | 2 (above 20% growth inhibition rate) | 2 (above 20% growth inhibition rate) | 4 (above 30% growth inhibition rate) | 5 (above 50% growth inhibition rate)
15 | CCS(=O)(=O)Oc1c(C(=O)c2ccc(S(C)(=O)=O)c(Cn3cc(C)cn3)c2Cl)c(C)nn1C [Compound 32] | 10 | 5 (above 50% growth inhibition rate) | 6 (above 60% growth inhibition rate) | 5 (above 50% growth inhibition rate) | 7 (above 70% growth inhibition rate) | 8 (above 80% growth inhibition rate)
16 | Cc1ccn(Cc2c(S(C)(=O)=O)ccc(C(=O)c3cnn(C)c3O)c2Cl)n1 [Compound 8] | 10 | 2 (above 20% growth inhibition rate) | 2 (above 20% growth inhibition rate) | 4 (above 30% growth inhibition rate) | 7 (above 70% growth inhibition rate) | 8 (above 80% growth inhibition rate)
17 | CCc1nn(CC)c(O)c1C(=O)c1ccc(S(C)(=O)=O)c(Cn2cc(C)cn2)c1Cl [Compound 25] | 10 | 2 (above 20% growth inhibition rate) | 3 (above 30% growth inhibition rate) | 4 (above 30% growth inhibition rate) | 4 (above 30% growth inhibition rate) | 5 (above 50% growth inhibition rate)
18 | Cc1cc(C)n(Cc2c(S(C)(=O)=O)ccc(C(=O)c3c(C)nn(C)c3OC(=O)c3nc(Cl)ccc3Cl)c2Cl)n1 [Compound 40] | 10 | 3 (above 30% growth inhibition rate) | 5 (above 50% growth inhibition rate) | 5 (above 50% growth inhibition rate) | 7 (above 70% growth inhibition rate) | 8 (above 80% growth inhibition rate)
